Like-named read-outs stand apart in the source and are kept apart here.
Columns and labels:
[1] = tested on: "acetic contortions" in mice; assay: Analgetic activity on the model "acetic contortions"; type: in vivo, white mongrel mice; conditions: dose 10 mg/kg (table title)
Method: The tests were conducted on males of white mongrel mice weighing 22-24 grams. The specific pain response (“contortions”) were elicited by intraperitoneal administration to mice of 0.75% acetic acid solution. The following signs were taken into consideration: the number of seizure contractions of abdominal muscles accompanied by stretching the hind limbs and sagging the back. Analgetic effect was assessed by decrease in the number of contortions in animals in percent to the control for 15 minutes post administration of acetic acid. The technique of the tests is disclosed in Koster R., Anderson M., de Beer B.//Fed. Proc. 1959. V. 18. P. 412. Compounds under testing were administered intraperitoneally (using a probe) at a dose 10 μg/kg 60 minutes prior to injection of the acid. Diclofenac (10 mg/kg) was used as a reference drug. Analgetic effect was calculated according to the formula: […]
wherein Ck is the number of contortions in the control group,
Co is the number of contortions in the test group.

"hot plate" test in mice = assay: Analgetic activity on the model "hot plate"; type: in vivo, white mongrel mice; conditions: 10 mg/kg; for response vs control in vivo at 10 mg/kg / change in vivo at 10 mg/kg: Mus musculus; for response vs control in vivo at 10 mg/kg: percent of background, read-out: Latent time of NT (%); for change in vivo at 10 mg/kg: read-out: Analgesia (%)
Method: The tests were conducted on males of white mongrel mice weighing 22-24 grams. The animals were individually placed on a hot plate (manufactured by the firm “Ugo Basile”), a temperature of which remained constant and was equal to 55° C. The following first manifestations of pain reaction were recorded: licking paws, jumping up prior to administration of a substance (background parameters) and 0.5, 1, 2, 3 and 4 hours post administration of a substance. Substances were administered […] (using a probe). A weighed amount of a substance was thoroughly mixed in 0.1 ml Tween 80 until a solution was obtained, then normal saline was added up to a volume of 0.5 ml. Average latent time of nociception threshold (NT) was calculated in every group. The results obtained were expressed in percent of the background values. Analgetic effect (in %) was calculated according to the formula: A−100%=X, wherein A is a background parameter; X is analgetic effect (in %)
A is (time 0.5 to 4 hours post administration×100%): background time
As reference drugs, Analgin (150 mg/kg), Paracetamol (200 mg/kg), Ketorol (10 mg/kg), were used.

[2] = tested on: carrageenan edema of rat paw; assay: Carrageenan edema of rat paw; type: in vivo, outbreed white rats; conditions: rats; 1% ointment; 4 hours post carrageenan
Method: The tests were conducted on males of outbreed white rats weighing 250-270 grams. The model of carrageenan edema was used which model is described in Winter et al. In: DeRosa M., Giroud J. P. Willoughby D. A. Studies of the mediators of acute inflammatory response induced in rats in different sites by carrageenan and turpentine.//J. Pharmacol. 1971. V. 104. P. 15-29.
0.1 ml 1% carrageenan solution (SERVA) was subplantarly injected into a right paw of rats. The animals were placed into individual chambers. […] Paw volume was measured using a pletismometer (Ugo Besile) at 4 hours post carrageenan administration. Therapeutic effect of the ointment was assessed by the inhibition degree of inflammatory reaction as compared to an intact left paw of the given animal and to a paw reaction of a control (untreated) group of rats. Inhibition of inflammatory reaction expressed in percent was calculated according to the formula: […]

gastric mucosa of rats = assay: Ulcerogenic effect on gastric mucosa; type: in vivo, outbreed rats; conditions: 30 mg/kg once intragastrally, at 24 hours, M ± m
Method: The tests were carried out on females of outbreed rats weighing 300-320 grams. The compounds tested were administered once intragastrally at a dose 30 mg/kg to rats deprived of feed for 24 hours prior to the test. Animals in the control group were administered distilled water in the same volume. At 24 hours the animals were sacrificed and stomachs were extracted. An empty stomach was filled with 2% formalin solution and it was placed into a beaker with formalin. 30 minutes later, the stomach was opened along the great curvature, expanded on a slide, fixed and washed with distilled water. Using the magnifying glass MBS-9 (8-fold magnification) length and width of gastric mucosa defects was measured and area in mm^2 was calculated (1 division of the magnifying glass ruler=0.1 mm). Ulcerogenic effect of a substance was assessed by ulcerous lesion area of gastric mucosa according to the technique presented in Rukovodstvo po experimental'nomu (doklinicheskomu) izucheniju novykh pharmacologicheskikh veshchestv (the Guide on Experimental (pre-clinical) Study of Novel Pharmacological Substances)./Moscow. “Remedium” publishers. 2000, 398 pages.

[3] = tested on: mice in the model of hypoxic hypoxia with hypercapnia; assay: Hypoxic hypoxia with hypercapnia in a hermetic volume; type: in vivo; conditions: for Duration of hypoxia (life span), M ± m: control 25.6 ± 0.6
Source text: In order to imitate acute oxygen insufficiency the hypoxia model with hypercapnia in a hermetic volume was used (Luk'yanova L. D., Gatsura V. V., Pastushenkov L. V. Metodicheskiye recomendatsii po experimental'nomu izucheniju preparatov, predlagajemykh dlya klinicheskogo isuchenija v kachestve antihypoxicheskikh sredsyv (Methodological recommendations on experimental study of preparations proposed for clinical examination as anti-hypoxic agents). Moscow. 1960. P. 1-19]. […] weighing 27-29 grams were individually placed into 260 ml glass jars which were hermetically closed. As the animals consume oxygen, its concentration in the vessel lowers that results in death of the animals. Life span of the mice in minutes was recorded.

mice, forced swimming = assay: "Behavioral despair" test according to Porsolt; type: in vivo; conditions: 50 mg/kg orally
Method: The “behavioral despair” test according to Porsolt [R. D. Porsolt, A. Bertin and M. Jalfre.//in mice: A primary Screening Test for Antidepressants. Arch. Int. Pharmacodyn., 1977, 229, p. 327-336] is a predictive test for drugs with antidepressant action.
Stress state in mice (weighing 27-30 grams) is induced by forced swimming. Animals are placed into a cylinder (height 25 cm, diameter 10 cm) filled to ⅓ with water at temperature 21-23° C. The animals cannot escape from the cylinder by themselves. Following a short time of activity the animals develop a so called “behavioral depression” characterized by hovering of animals, immobilization duration of which can be fixed. The experiment is carried out in two days. One a first day, animals are placed into the cylinder for 15 minutes (pre-test). After removal from water, the animals are dried and preparations under testing are administered. At 24 hours, the preparations are administered again and one hour later the animals are placed into the cylinder for 6 minutes. During first two minutes the animals are actively swimming; during the subsequent four minutes, behavioral depression develops manifested by immobilization (hovering) which is fixed for 4 minutes and is measure in seconds. Compound IX and the reference antidepressant drug Fluoxetin were administered orally at a dose 50 mg/kg.

With O=C(CCc1ccc(O)cc1)NCCc1ccccc1 [Compound IX, 3-(p-hydroxyphenyl)-propionylphenylethylamine] the inhibition in vivo at 10 mg/kg ([1]; Mus musculus, ip, 0.25 h, read-out: Analgetic effect (%)) was 68%, the response vs control in vivo at 10 mg/kg ([1]; Mus musculus, ip, 0.25 h, read-out: C, % to the control) was 32% and the “C ± m (the number of contortions for 15 minutes)” value ([1]; 60 minutes prior to acetic acid) was 11.8 ± 2.9. The “latent time of nociception threshold, M ± m” value (“latent time” for short) ("hot plate" test in mice; 30 minutes post administration) was 8.4 ± 1.23 s, the “latent time” value ("hot plate" test in mice; 60 minutes post administration) was 7.36 ± 1.04 s and the “latent time” value ("hot plate" test in mice; 120 minutes post administration) was 9.83 ± 2.52 s. The “latent time” value ("hot plate" test in mice; 240 minutes post administration) was 7.72 ± 0.24 s, the response vs control in vivo at 10 mg/kg ("hot plate" test in mice; 0.5 h, 30 minutes) was 203% and the change in vivo at 10 mg/kg ("hot plate" test in mice; 0.5 h, 30 minutes) was 103%. The response vs control in vivo at 10 mg/kg ("hot plate" test in mice; 1 h, 60 minutes) was 178%, the change in vivo at 10 mg/kg ("hot plate" test in mice; 1 h, 60 minutes) was 77.8% and the response vs control in vivo at 10 mg/kg ("hot plate" test in mice; 2 h, 120 minutes) was 237%. The change in vivo at 10 mg/kg ("hot plate" test in mice; 2 h, 120 minutes) was 137%, the response vs control in vivo at 10 mg/kg ("hot plate" test in mice; 4 h, 240 minutes) was 186% and the change in vivo at 10 mg/kg ("hot plate" test in mice; 4 h, 240 minutes) was 86.5%. The “Edema inhibition (%)” value [2] was 53.1%, the “Paw volume gain (%)” value [2] was 32.9% and the “Area of ulcerous lesion” value (gastric mucosa of rats) was 0 mm^2. The “% change from the control” value ([3]; 10 mg/kg) was 0%, the “Duration of hypoxia (life span), M ± m” value ([3]; 10 mg/kg) was 25.3 ± 0.8 min and the “Duration of hypoxia (life span), M ± m” value ([3]; 50 mg/kg) was 32.6 ± 2.6 min. The “% change from the control” value (mice, forced swimming) was −21% and the “immobilization time, M ± m” value (mice, forced swimming; fixed for 4 minutes, control 195.0 ± 10.3) was 154.0 ± 11.7 s.
